Test results taken from ChEMBL document CHEMBL1201862, “PubChem BioAssay data set” (2004).
Active and inactive are the calls of the source.

Key:
[1] = target: Genome polyprotein (dengue virus type 2, UniProt P29990); test: flavivirus cap methylation enzyme inhibition – biochemical, confirmation dose response, primary screen (AID 588689); format: functional
[2] = intracellular Trypanosoma cruzi inhibitors in host cells – cell-based, plate reader, cherry-pick samples, set 3, dose response (AID 651818); format: functional;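 further: compounds incubated with infected cells for about four days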
[3] = target: T1, Replicative DNA helicase DnaB (Mycobacterium tuberculosis, UniProt P9WMR3); test: DnaB intein splicing inhibitors, dose response, biochemical, cell-free fluorescence (AID 449749); format: functional
T1 sequence (P9WMR3 whole entry): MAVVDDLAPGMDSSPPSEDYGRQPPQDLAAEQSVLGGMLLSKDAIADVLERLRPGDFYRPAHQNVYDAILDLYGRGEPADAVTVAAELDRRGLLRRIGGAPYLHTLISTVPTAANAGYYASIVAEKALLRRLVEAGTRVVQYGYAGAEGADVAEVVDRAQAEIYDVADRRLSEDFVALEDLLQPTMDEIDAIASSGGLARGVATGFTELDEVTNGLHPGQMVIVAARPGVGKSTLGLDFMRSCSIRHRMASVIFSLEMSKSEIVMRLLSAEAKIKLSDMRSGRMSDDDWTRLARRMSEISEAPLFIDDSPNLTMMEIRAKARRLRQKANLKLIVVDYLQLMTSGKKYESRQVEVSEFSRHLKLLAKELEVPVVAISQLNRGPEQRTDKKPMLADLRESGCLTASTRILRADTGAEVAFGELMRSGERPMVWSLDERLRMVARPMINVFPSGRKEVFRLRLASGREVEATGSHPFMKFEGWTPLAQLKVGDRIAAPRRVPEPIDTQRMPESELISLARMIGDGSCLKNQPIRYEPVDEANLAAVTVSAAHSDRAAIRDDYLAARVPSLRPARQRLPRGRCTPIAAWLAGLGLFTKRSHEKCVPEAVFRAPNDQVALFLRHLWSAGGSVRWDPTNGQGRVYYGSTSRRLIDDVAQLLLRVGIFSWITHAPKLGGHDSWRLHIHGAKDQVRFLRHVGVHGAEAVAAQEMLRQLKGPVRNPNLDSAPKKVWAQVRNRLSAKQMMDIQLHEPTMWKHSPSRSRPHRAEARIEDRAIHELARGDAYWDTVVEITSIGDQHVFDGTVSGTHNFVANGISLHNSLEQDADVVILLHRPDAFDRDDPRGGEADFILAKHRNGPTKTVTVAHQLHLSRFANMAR

[4] = target: T2, Protein RecA (Mycobacterium tuberculosis, UniProt P9WHJ3); test: Fluorescence Cell-Free Homogeneous Dose Retest to Identify Inhibitors of RecA-Intein Splicing Activity. [Related pubchem assays (depositor defined):AID2097, AID2223, AID489010, AID492950]; format: functional
T2 sequence (P9WHJ3 whole entry): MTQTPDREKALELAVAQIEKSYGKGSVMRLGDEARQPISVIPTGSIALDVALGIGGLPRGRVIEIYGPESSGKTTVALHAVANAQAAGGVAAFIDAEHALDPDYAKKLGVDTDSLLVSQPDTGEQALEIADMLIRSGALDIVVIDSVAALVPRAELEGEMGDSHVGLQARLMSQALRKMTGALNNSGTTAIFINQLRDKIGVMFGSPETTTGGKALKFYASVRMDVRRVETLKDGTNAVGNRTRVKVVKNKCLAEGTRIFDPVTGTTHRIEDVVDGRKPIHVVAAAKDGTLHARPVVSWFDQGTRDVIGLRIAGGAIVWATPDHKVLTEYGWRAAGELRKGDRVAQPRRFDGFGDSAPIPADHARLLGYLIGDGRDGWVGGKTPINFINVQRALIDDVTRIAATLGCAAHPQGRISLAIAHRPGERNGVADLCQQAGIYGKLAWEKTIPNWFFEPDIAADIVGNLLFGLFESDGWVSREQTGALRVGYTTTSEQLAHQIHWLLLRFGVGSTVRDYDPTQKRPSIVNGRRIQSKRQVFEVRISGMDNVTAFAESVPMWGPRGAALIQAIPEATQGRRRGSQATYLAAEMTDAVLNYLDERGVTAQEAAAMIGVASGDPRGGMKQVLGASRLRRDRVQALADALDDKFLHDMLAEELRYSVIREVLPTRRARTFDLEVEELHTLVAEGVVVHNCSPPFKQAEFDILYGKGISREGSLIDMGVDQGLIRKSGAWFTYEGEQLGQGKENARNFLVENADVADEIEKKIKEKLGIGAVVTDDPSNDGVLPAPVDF

[5] = target: T3, Leucine aminopeptidase (Plasmodium falciparum 3D7, UniProt Q8IL11); test: P. falciparum M17LAP inhibitors, primary screen, biochemical, fluorogenic H-Leu-NHMec substrate, 1536-well (AID 1619); format: functional
T3 sequence (Q8IL11 whole entry): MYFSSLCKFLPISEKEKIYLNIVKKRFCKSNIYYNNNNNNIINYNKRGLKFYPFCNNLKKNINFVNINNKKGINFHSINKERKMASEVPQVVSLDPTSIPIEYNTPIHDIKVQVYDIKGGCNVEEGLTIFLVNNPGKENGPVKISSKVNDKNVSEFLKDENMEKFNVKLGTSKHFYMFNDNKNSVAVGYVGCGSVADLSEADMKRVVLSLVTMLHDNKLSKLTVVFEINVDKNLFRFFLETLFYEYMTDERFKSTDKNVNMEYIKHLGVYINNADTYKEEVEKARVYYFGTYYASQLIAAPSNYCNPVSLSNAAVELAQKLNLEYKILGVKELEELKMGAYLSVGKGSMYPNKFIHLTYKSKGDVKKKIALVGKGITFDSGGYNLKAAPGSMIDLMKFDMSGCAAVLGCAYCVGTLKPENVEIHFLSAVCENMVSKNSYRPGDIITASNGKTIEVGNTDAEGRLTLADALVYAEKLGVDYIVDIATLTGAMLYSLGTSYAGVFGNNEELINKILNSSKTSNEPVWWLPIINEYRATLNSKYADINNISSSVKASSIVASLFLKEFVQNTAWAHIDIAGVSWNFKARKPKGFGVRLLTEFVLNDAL

[6] = target: Cytochrome P450 2C19 (Homo sapiens, UniProt P33261); test: Cytochrome panel assay with activity outcomes. Panel member name: p450-cyp2c19 Compounds with AC50 equal or less than 10 uM are considered active; format: functional
Cytochrome P450 2C19, sequence (P33261 whole entry): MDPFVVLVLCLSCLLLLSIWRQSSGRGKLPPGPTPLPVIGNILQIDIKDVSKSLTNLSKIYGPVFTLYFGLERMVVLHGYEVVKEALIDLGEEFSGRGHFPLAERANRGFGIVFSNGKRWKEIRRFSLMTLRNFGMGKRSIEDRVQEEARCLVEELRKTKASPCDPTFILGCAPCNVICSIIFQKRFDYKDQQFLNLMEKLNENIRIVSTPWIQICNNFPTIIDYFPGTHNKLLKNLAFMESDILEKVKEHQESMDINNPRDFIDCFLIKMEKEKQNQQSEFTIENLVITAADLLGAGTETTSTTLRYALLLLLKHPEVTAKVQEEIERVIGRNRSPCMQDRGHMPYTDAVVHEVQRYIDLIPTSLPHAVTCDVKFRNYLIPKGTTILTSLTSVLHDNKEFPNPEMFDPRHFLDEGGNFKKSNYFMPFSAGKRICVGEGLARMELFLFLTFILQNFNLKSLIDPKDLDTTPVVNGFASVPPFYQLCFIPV

[7] = target: Cytochrome P450 3A4 (Homo sapiens, UniProt P08684);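 further: CYP3A4 tested as one member of a cytochrome P450 panel screen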
Cytochrome P450 3A4, sequence (P08684 whole entry): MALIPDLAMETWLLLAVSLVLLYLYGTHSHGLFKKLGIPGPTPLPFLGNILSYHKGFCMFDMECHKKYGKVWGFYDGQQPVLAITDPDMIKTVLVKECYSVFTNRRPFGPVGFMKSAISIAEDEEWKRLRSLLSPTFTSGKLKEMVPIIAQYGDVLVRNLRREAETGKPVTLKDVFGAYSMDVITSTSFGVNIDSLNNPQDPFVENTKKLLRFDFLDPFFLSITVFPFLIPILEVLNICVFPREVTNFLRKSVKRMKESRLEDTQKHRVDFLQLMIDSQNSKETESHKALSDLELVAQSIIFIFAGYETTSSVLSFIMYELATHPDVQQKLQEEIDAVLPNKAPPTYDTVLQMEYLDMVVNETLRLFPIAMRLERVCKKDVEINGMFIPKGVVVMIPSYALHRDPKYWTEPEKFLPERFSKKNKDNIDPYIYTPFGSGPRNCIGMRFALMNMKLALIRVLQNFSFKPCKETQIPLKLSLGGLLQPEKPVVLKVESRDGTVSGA

[8] = target: Cytochrome P450 2C9 (Homo sapiens, UniProt P11712)
Cytochrome P450 2C9, sequence (P11712 whole entry): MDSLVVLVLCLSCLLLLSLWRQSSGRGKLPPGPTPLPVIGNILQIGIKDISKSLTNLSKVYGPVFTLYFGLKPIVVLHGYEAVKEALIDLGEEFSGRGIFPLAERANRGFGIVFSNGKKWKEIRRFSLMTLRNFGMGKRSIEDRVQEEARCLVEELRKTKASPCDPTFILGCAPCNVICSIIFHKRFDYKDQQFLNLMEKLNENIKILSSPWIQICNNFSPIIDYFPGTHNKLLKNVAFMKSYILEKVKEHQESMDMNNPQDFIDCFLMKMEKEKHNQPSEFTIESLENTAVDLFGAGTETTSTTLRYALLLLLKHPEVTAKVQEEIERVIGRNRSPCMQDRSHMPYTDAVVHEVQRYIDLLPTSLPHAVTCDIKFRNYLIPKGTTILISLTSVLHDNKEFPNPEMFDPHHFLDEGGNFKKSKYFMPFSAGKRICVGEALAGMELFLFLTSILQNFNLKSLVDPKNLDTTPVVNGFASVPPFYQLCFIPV

[9] = target: Estrogen receptor beta (Homo sapiens, UniProt Q92731);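 further: recombinant ER-beta bound to coactivator SRC1 peptide in presence of estradiol agonist; inhibitors block coactivator peptide binding and lower the FRET signal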
Estrogen receptor beta, sequence (Q92731 whole entry): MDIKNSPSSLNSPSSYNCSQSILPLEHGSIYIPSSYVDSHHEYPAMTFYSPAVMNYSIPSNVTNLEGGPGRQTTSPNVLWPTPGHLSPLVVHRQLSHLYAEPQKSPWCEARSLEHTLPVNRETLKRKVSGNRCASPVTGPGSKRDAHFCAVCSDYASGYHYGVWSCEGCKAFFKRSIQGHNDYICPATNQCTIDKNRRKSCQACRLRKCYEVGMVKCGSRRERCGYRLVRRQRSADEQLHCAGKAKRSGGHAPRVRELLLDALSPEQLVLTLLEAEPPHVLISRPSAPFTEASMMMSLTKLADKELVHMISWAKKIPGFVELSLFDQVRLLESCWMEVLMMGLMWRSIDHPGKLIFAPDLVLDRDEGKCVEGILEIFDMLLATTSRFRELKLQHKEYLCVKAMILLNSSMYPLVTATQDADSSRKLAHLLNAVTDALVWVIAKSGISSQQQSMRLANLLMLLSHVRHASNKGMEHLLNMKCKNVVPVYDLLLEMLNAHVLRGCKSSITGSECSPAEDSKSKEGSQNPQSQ

[10] = target: Glyceraldehyde-3-phosphate dehydrogenase (Homo sapiens, UniProt P04406)
Glyceraldehyde-3-phosphate dehydrogenase, sequence (P04406 whole entry): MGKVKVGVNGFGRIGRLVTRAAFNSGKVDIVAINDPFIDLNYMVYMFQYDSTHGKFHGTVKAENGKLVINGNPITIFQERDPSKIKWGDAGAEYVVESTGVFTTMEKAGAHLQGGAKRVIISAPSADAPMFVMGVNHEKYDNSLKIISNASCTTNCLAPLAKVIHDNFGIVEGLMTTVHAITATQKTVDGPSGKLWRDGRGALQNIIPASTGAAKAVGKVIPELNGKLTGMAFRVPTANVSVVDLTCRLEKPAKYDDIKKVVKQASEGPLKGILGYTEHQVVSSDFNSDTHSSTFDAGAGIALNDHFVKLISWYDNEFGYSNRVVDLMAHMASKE

[11] = viability loss in THP-1 monocytes – THP-1 cells, cytotoxicity control for Vif-APOBEC3G degradation inhibitor project, dose response (AID 1117359); format: functional; settings: THP-1
[12] = target: T4, Polyadenylate-binding protein 1 (Homo sapiens, UniProt P11940); test: MLLE binding blockers, Cy5 peptide tracer – biochemical, fluorescence polarization, Cy5-PAM2 peptide, secondary, miRNA deadenylation inhibitor project, dose response (AID 602260); format: functional; settings: read-out: IC50_Mean
T4 sequence (P11940 whole entry, the tested form may be a part): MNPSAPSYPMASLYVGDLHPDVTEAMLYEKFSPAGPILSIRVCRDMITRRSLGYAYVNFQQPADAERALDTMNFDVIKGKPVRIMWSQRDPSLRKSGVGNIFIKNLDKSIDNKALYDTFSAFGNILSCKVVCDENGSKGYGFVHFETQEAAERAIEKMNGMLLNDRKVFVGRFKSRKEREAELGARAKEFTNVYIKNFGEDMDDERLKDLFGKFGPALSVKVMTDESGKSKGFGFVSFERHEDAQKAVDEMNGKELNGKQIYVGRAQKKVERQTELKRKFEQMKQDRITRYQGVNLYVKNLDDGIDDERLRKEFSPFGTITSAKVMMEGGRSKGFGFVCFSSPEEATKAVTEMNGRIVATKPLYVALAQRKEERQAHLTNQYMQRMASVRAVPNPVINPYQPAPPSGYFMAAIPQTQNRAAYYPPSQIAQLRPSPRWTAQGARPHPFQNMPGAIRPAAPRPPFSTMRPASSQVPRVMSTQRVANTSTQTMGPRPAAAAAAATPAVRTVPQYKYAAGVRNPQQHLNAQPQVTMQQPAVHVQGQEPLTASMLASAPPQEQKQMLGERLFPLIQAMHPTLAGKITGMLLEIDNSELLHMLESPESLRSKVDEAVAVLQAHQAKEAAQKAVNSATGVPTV

[13] = target: T4, Polyadenylate-binding protein 1; test: MLLE domain peptide-binding blockers, IC50 – biochemical, fluorescence polarization, FITC-PAM2 peptide, dose response (AID 602259); format: functional; settings: read-out: IC50_Mean
[14] = target: T5, Corticotropin-releasing factor receptor 2/Corticotropin-releasing factor-binding protein (Homo sapiens, UniProt P24387+Q13324); test: activators of CRF receptor 2 with binding protein – uHTS hits, confirmation (AID 602473); format: functional; settings: read-out: EC50_Mean
T5 sequence (Q13324 whole entry): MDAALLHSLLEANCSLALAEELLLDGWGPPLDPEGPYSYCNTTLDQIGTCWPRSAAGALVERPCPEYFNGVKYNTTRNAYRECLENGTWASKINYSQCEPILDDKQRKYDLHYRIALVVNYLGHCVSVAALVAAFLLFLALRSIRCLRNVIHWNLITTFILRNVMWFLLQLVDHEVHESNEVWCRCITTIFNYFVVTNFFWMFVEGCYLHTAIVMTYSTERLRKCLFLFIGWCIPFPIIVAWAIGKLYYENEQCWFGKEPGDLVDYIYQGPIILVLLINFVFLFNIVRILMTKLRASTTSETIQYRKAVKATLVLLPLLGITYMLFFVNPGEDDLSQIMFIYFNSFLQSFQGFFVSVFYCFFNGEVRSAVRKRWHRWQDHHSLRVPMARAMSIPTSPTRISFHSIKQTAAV
T5 sequence (P24387 whole entry): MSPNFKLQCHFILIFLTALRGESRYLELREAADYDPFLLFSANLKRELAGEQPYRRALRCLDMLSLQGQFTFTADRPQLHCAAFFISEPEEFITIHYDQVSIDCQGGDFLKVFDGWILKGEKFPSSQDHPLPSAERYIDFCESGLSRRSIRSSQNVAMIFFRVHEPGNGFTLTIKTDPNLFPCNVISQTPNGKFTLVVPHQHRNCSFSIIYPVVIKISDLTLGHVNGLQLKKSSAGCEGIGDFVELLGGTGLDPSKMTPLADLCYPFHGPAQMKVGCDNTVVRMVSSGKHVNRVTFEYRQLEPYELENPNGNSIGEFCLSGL

[15] = target: Beta Lactamase (Pseudomonas aeruginosa, UniProt Q932Y6); test: BLA reporter interference, concentration series – BLA reporter cells, FRET fluorescence, artefact control for TLR9-MyD88 binding inhibitor project, dose response (AID 588341); format: cell-based;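 further: cell based assay in CHO-K1 cells stably expressing beta-lactamase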
Beta Lactamase, sequence (Q932Y6 whole entry, the tested form may be a part): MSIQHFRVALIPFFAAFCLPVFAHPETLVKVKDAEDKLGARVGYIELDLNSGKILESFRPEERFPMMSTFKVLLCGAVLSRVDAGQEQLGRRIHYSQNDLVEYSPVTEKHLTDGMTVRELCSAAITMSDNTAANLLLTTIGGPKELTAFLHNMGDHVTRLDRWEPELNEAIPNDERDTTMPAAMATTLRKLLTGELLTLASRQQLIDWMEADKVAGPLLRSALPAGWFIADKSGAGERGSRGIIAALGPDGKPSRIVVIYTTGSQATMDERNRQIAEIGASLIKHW

[16] = tested on: CHO; test: CHO cell viability loss, potency – luminescence, cytotoxicity control for TLR9-MyD88 binding inhibitor project, dose response (AID 588339); format: functional, cell-based, hamster; settings: Cricetulus griseus;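 further: CHO cells stably coexpressing TLR9 and MyD88 fusions from primary screen; compound exposure lasted 48 hours before viability readout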
[17] = microbe, parasite or virus in culture; format: functional; settings: Mycobacterium tuberculosis

Genome polyprotein, sequence (P29990 2492-3391 limits assumed): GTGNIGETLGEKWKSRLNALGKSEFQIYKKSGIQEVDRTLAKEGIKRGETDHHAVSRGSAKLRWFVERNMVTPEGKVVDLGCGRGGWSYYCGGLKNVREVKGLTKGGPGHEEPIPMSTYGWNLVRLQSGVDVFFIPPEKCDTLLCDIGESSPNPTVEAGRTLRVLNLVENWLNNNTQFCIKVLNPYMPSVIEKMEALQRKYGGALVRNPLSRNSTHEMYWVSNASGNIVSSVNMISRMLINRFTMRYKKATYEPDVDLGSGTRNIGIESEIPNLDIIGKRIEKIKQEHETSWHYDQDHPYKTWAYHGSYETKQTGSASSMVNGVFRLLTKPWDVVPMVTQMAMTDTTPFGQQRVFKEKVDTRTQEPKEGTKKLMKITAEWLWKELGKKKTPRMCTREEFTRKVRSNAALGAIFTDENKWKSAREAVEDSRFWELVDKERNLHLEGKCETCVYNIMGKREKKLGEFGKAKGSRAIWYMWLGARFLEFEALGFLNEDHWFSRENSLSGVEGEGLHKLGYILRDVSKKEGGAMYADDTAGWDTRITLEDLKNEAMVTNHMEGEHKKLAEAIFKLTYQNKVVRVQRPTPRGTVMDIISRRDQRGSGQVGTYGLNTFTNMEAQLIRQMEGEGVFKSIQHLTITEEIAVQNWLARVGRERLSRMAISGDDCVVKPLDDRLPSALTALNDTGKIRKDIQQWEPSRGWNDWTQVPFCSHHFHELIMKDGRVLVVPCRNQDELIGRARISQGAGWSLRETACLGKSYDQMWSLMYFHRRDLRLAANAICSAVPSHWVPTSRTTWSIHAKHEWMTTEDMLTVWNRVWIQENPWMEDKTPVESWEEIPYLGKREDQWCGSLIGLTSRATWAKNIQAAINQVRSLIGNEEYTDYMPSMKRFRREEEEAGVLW

O=C(O)c1cc([N+](=O)[O-])c(Nc2cccc3ccccc23)c([N+](=O)[O-])c1
IC50 [1]: 64.7 µM (active)

C[C@@H]1CN([C@H](C)CO)C(=O)c2cccc(NC(=O)CCCCCC(=O)Nc3ccccc3N)c2O[C@@H]1CN(C)S(=O)(=O)c1ccc(F)cc1
AC50 [2]: 3.66 µM (active)

c1cncc(CNc2ncnc3sc4c(c23)CCCC4)c1
AC50 [3]: > 380 µM (inactive)
EC50 [4]: > 380 µM (inactive)

Cc1ccc(-n2nc(C)c3c2OC(N)=C(C#N)C3c2ccoc2)cc1 (centres undefined)
AC50 [3]: 5.41 µM (active)
EC50 [4]: 2.56 µM (active)

COc1ccc(-n2c(SC)nc(O)c(Cc3ccccc3)c2=O)cc1
IC50 [5]: 46 µM (active)
AC50 [6]: 7.94 µM (inconclusive)
AC50 [7]: 22.4 µM (inconclusive)
AC50 [8]: 12.6 µM (inconclusive)

N#Cc1cc2c(=O)n3ccccc3nc2n(CCCn2ccnc2)c1=N
IC50 [9]: > 50 µM (not active)

O=C(O)CCCCC(=O)c1ccc(CC(=O)O)s1
IC50 [10]: > 100 µM (not active)

N#CCCN(C(=O)CCl)c1cccc(Cl)c1
AC50 [3]: 78.4 µM (active)
EC50 [4]: 8.64 µM (active)

COc1cccc(/C=C2\SC(N)=NC2=O)c1OS(=O)(=O)c1ccccc1
CC50 [11]: > 40 µM (active)

C[C@H]1CN([C@@H](C)CO)C(=O)c2cccc(NC(=O)Nc3cccc4ccccc34)c2O[C@H]1CN(C)Cc1ccc(C(F)(F)F)cc1
AC50 [2]: 2.85 µM (active)

CCC(=O)NC(=S)Nc1c(C)cc(Br)cc1C
IC50 [12]: > 66 µM (inactive)
IC50 [13]: > 66 µM (inactive)

C[C@@H]1CCCCO[C@@H](CN(C)CC2CCCCC2)[C@@H](C)CN([C@H](C)CO)C(=O)c2cc(NC(=O)Nc3ccc(C(F)(F)F)cc3)ccc2O1
AC50 [2]: 1.63 µM (active)

O=C1C(Cl)=C(N2CCN(CCO)CC2)C(=O)N1c1cccc(C(F)(F)F)c1
IC50 [10]: > 50 µM (inconclusive)

COC(=O)c1scc2c(O)cc(C(F)(F)F)nc12
IC50 [12]: > 66 µM (inactive)
IC50 [13]: 35.7 µM (inactive)
EC50 [14]: 5.75 µM (active)

CCOc1ccc(C(=O)CN2CCN(S(=O)(=O)c3ccc(OC)cc3)CC2)cc1
IC50 [5]: 73.5 µM (active)

CS(=O)(=O)c1cccc(C(=O)Nc2nnc(C3=COCCO3)o2)c1
IC50 [12]: > 66 µM (inactive)
IC50 [13]: > 66 µM (inactive)

C[C@H](CO)N1C[C@H](C)[C@H](CN(C)Cc2ccc(Cl)c(Cl)c2)Oc2c(NC(=O)Nc3ccc4c(c3)OCO4)cccc2C1=O
AC50 [2]: 2.61 µM (active)

COc1ccc(OC)c(C=Cc2ccc([N+](=O)[O-])cc2)c1
IC50 [15]: 8.19 µM (active)
IC50 [16]: > 49.7 µM (inactive)

N#CC1=C(N)Oc2[nH]nc(-c3ccc(F)cc3)c2C1c1cccc(OC(=O)N2CCOCC2)c1 (centres undefined)
AC50 [3]: 6.74 µM (active)
EC50 [4]: 1.29 µM (active)

O=C(NNC(=O)C1CC2CCC1C2)c1sc2ccccc2c1Cl (centres undefined)
IC50 [5]: 68.1 µM (active)

Cc1ccc(S(=O)(=O)NC(CC(C)C)C(=O)N2CCN(C/C=C/c3ccccc3)CC2)cc1 (centres undefined)
CC50 [17]: > 40 µM (active)
CC50 [11]: > 40 µM (active)

CC1(C(=O)O)CC(C)(C(=O)O)CC(C)(C(=O)O)C1 (centres undefined)
IC50 [5]: 58.7 µM (active)

O=C1NC(=S)N/C1=C\c1ccc(-c2cc([N+](=O)[O-])ccc2Br)o1
IC50 [10]: > 100 µM (not active)

Cc1[nH]n(-c2ccccc2)c(=O)c1Sc1ccc(Cl)cc1
IC50 [5]: 37.4 µM (active)
AC50 [3]: 12.2 µM (active)
EC50 [4]: 4.68 µM (active)
IC50 [9]: > 50 µM (not active)

COc1ccccc1-c1c(C)nn2c(O)c(Cc3ccccc3)c(C)nc12
CC50 [11]: > 40 µM (active)

COc1ccc(CCN(C)C(=O)COC(=O)/C=C/c2ccc(C)o2)cc1OC
CC50 [11]: > 40 µM (active)

C[C@H](CO)N1C[C@H](C)[C@@H](CN(C)CC2CC2)Oc2c(NC(=O)CCCCCC(=O)Nc3ccccc3N)cccc2C1=O
AC50 [2]: 2.88 µM (active)

Clc1ccc(-c2nc3cnccn3c2Nc2ccc3c(c2)OCO3)cc1
CC50 [11]: 19.9 µM (active)
